Experimental data published in patent publication US20240425523A1, “Compounds for the Degradation of EGFR Kinase” (Beigene Switzerland GMBH, priority 2023, published 2024).

Tests used:
Type in all cases: cell-based
[1] = biological target: T1, EGFR L858R (BaF3-L858R cells) (Homo sapiens, UniProt P00533, L858R); experiment: Cell degradation of EGFR, HTRF assay, BaF3-L858R cells; conditions: 16 h treatment; for DC50: EGFR degradation; for Dmax: maximum percentage of degradation
T1 construct: host or cells: BaF3
In short: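 EGFR L858R levels measured by HTRF antibody pair in lysed BaF3-L858R cells after 16 h compound exposure (8-point 5-fold series from 10 uM final, 37° C). Degradation is relative to DMSO-only cells; DC50 fitted with Hill equation, Dmax taken as the largest percent loss.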

[2] = biological target: T2, p-EGFR L858R (BaF3-L858R cells) (Homo sapiens, UniProt P00533, L858R); experiment: Cell p-EGFR inhibition assay, HTRF, BaF3-L858R cells; conditions: 16 h treatment; for Imax (%): maximum percentage of pEGFR inhibition; for IC50: pEGFR inhibition
T2 construct: host or cells: BaF3
Description: BaF3-L858R (abbv. L858R) cell were purchased from Kangyuan Bochuang Biotechnology (Beijing) Co., Ltd.
(§1) H1975-#23 and BaF3-L858R cells are treated with compounds diluted in 0.1% DMSO cell culture medium on day 2, incubate for 16 h, 37° C., 5% CO2. the final concentration of compounds in all assay is start with 10 uM, 5-fold dilution, total 8 doses were included.
(§2) After 16 h treatment, for H1975-#23 cells, add 50 ul HTRF 1× lysis buffer to each well; for BaF3-L858R cells, add 20 μl 4× lysis buffer to each well; seal the plate and incubate 1 hour at room temperature on a plate shaker; Once the cells are lysed, 16 μL of cell lysate are transferred to a PE 384-well HTRF detection plate; 4 μL of pre-mixed HTRF antibodies are added to each well; Cover the plate with a plate sealer, spin 1000 rpm for 1 min, Incubate overnight at room temperature; Read on BMG PheraStar with HTRF protocol (337 nm-665 nm-620 nm).
(§3) High control=Cell group with added DMSO and without compound, indicating microplate readings without p-EGFR inhibited.
(§4) Imax is the maximum percentage of inhibition.
(§5) The IC50 value of a compound can be obtained by fitting the following equation.
(§6) Wherein, X and Y are known values, and IC50, Hillslope, Top and Bottom are the parameters obtained by fitting with software. […] The experimental data were fitted by calculating and analyzing with Dotmatics data analysis software.

[3] = biological target: T3, EGFR-L858R/C797S (H1975-clone #8 cells) (Homo sapiens, UniProt P00533, C797S/L858R); experiment: Cell degradation of EGFR, HTRF assay, H1975-clone#8 (L858R/C797S) cells; conditions: 16 h treatment; for DC50: EGFR degradation; for Dmax: maximum percentage of degradation
T3 construct: expressed in transfected cells; host or cells: H1975 (endogenous EGFR knocked out, clone #8)

[4] = biological target: p-EGFR Del19/C797S (H1975-clone #23 cells) (Homo sapiens, UniProt P00533); experiment: Cell p-EGFR inhibition assay, HTRF, H1975-clone#23 (DEL19/C797S) cells; conditions: 16 h treatment; for Imax (%): maximum percentage of pEGFR inhibition; for IC50: pEGFR inhibition
Description: The EGFR over-expressed cells then underwent knockout, in which the EGFR targeting sgRNA was designed to only target the endogenous EGFR copies and preserve the exogenous EGFR copies. Followed by the knockout, the edited H1975 cells were seeded in 96 well plates at the concentration of 1 cell/well, cultured for about 2 weeks to allow single clones formation. The formed clones were screened by DNA sequencing and whole exon sequencing analysis for the desired edition.
as §1, §2, §3, §4, §5, §6

Row | SMILES | DC50 [1] | Dmax [1] | Imax (%) [2] | IC50 [2] | DC50 [3] | Dmax [3] | Imax (%) [4] | IC50 [4]
1 | COC[C@H]1CN(c2ccc3c(c2)N2C[C@@H]4CC[C@H](COc5c(cnn5C)-c5cc(cc(C)n5)C(=O)/N=C/2N3)C4)CCN1C1CCN(c2ccc(C3CCC(=O)NC3=O)nc2C)CC1 (stereo partly drawn) [Example 65, 3-(5-(4-((R)-4-((7^1R,7^3S,E)-1^1,2^6-dimethyl-3-oxo-5^2,5^3-dihydro-1^1H,5^1H-9-oxa-4-aza-5(2,1)-benzo[d]imidazola-2(2,4)-pyridina-1(4,5)-pyrazola-7(1,3)-cyclopentanacyclononaphane-5^6-yl)-2-(methoxymethyl)piperazin-1-yl)piperidin-1-yl)-6-methylpyridin-2-yl)piperidine-2,6-dione] | 0.94 nM | 88.7% | 103% | 2.8 nM | 0.87 nM | 78.6% | 101.5% | 0.3 nM
2 | COC[C@@H]1CN(c2ccc3c(c2)N2C[C@@H]4CC[C@H](COc5c(cnn5C)-c5cc(cc(C)n5)C(=O)/N=C/2N3)C4)CCN1CC1CN(c2ccc3c(c2)C(=O)N(C2CCC(=O)NC2=O)C3=O)C1 (stereo partly drawn) [Example 69, 5-(3-(((S)-4-((7^1R,7^3S,E)-1^1,2^6-dimethyl-3-oxo-5^2,5^3-dihydro-1^1H,5^1H-9-oxa-4-aza-5(2,1)-benzo[d]imidazola-2(2,4)-pyridina-1(4,5)-pyrazola-7(1,3)-cyclopentanacyclononaphane-5^6-yl)-2-(methoxymethyl)piperazin-1-yl)methyl)azetidin-1-yl)-2-(2,6-dioxopiperidin-3-yl)isoindoline-1,3-dione] | 3.2 nM | 89.3% | 99.9% | 5.7 nM | 5.24 nM | 62.4% | 100.1% | 1.8 nM
3 | COC[C@@H]1CN(c2ccc3c(c2)N2CC4CC[C@H](COc5c(cnn5C)-c5cc(cc(C)n5)C(=O)/N=C/2N3)C4)CCN1C1CCN(c2cc(F)c(C3CCC(=O)NC3=O)nc2C)CC1 (stereo partly drawn) [Example 70, 3-(5-(4-((S)-4-((7^1R,7^3S,E)-1^1,2^6-dimethyl-3-oxo-5^2,5^3-dihydro-1^1H,5^1H-9-oxa-4-aza-5(2,1)-benzo[d]imidazola-2(2,4)-pyridina-1(4,5)-pyrazola-7(1,3)-cyclopentanacyclononaphane-5^6-yl)-2-(methoxymethyl)piperazin-1-yl)piperidin-1-yl)-3-fluoro-6-methylpyridin-2-yl)piperidine-2,6-dione] | 3.78 nM | 87.7% | 102.1% | 11 nM | 4.11 nM | 73.5% | 99.2% | 1.4 nM
4 | COC[C@H]1CN(c2ccc3c(c2)N2CC4CC[C@H](COc5c(cnn5C)-c5cc(cc(C)n5)C(=O)/N=C/2N3)C4)CCN1C1CCN(c2cc(F)c(C3CCC(=O)NC3=O)nc2C)CC1 (stereo partly drawn) [Example 71, 3-(5-(4-((R)-4-((7^1R,7^3S,E)-1^1,2^6-dimethyl-3-oxo-5^2,5^3-dihydro-1^1H,5^1H-9-oxa-4-aza-5(2,1)-benzo[d]imidazola-2(2,4)-pyridina-1(4,5)-pyrazola-7(1,3)-cyclopentanacyclononaphane-5^6-yl)-2-(methoxymethyl)piperazin-1-yl)piperidin-1-yl)-3-fluoro-6-methylpyridin-2-yl)piperidine-2,6-dione] | 3.63 nM | 84.6% | 99.7% | 6.4 nM | 3.3 nM | 80.2% | 99.8% | 1.1 nM
5 | Cc1cc2cc(n1)-c1c(C)nn(C)c1OC[C@H]1CCC(C1)CN1/C(=N/C2=O)Nc2ccc(N3CCN(C4CCN(c5ccc(C6CCC(=O)NC6=O)nc5C)CC4)CC3)cc21 (stereo partly drawn) [Example 72, 3-(6-methyl-5-(4-(4-((7^1R,7^3S,E)-1^1,1^3,2^6-trimethyl-3-oxo-5^2,5^3-dihydro-1^1H,5^1H-9-oxa-4-aza-5(2,1)-benzo[d]imidazola-2(2,4)-pyridina-1(4,5)-pyrazola-7(1,3)-cyclopentanacyclononaphane-5^6-yl)piperazin-1-yl)piperidin-1-yl)pyridin-2-yl)piperidine-2,6-dione] | 0.4 nM | 91.6% | 92.8% | 3.2 nM | 0.64 nM | 76.6% | 101.7% | 0.6 nM
6 | COC[C@@H]1CN(c2ccc3c(c2)N2CC4CC[C@H](COc5c(cnn5C)-c5cc(cc(C)n5)C(=O)/N=C/2N3)C4)CCN1C1CCN(c2ccc(C3CCC(=O)NC3=O)nc2C)CC1 (stereo partly drawn) [Example 73, 3-(5-(4-((S)-4-((7^1R,7^3S,E)-1^1,2^6-dimethyl-3-oxo-5^2,5^3-dihydro-1^1H,5^1H-9-oxa-4-aza-5(2,1)-benzo[d]imidazola-2(2,4)-pyridina-1(4,5)-pyrazola-7(1,3)-cyclopentanacyclononaphane-5^6-yl)-2-(methoxymethyl)piperazin-1-yl)piperidin-1-yl)-6-methylpyridin-2-yl)piperidine-2,6-dione] | 2.02 nM | 87.2% | 93.5% | 10.2 nM | 2.24 nM | 78.4% | 101.1% | 1 nM
7 | Cc1cc2cc(n1)-c1c(C)nn(C)c1OC[C@H]1CCC(C1)CN1/C(=N/C2=O)Nc2ccc(N3CCN(C4CCN(c5cc(F)c([C@H]6CCC(=O)NC6=O)c(F)c5)CC4)CC3)cc21 [Example 74, (R)-3-(2,6-difluoro-4-(4-(4-((7^1R,7^3S,E)-1^1,1^3,2^6-trimethyl-3-oxo-5^2,5^3-dihydro-1^1H,5^1H-9-oxa-4-aza-5(2,1)-benzo[d]imidazola-2(2,4)-pyridina-1(4,5)-pyrazola-7(1,3)-cyclopentanacyclononaphane-5^6-yl)piperazin-1-yl)piperidin-1-yl)phenyl)piperidine-2,6-dione] | 0.99 nM | 90.4% | 93.3% | 3.2 nM | 1 nM | 86.2% | 101.2% | 1.7 nM
8 | Cc1cc2cc(n1)-c1cnn(C)c1OC[C@H]1CCC(C1)CN1/C(=N/C2=O)Nc2ccc(N3CCN(C4CCN(c5cc(F)c([C@H]6CCC(=O)NC6=O)c(F)c5)CC4)[C@@H](CO)C3)cc21 [Example 75, (R)-3-(4-(4-((R)-4-((7^1R,7^3S,E)-1^1,2^6-dimethyl-3-oxo-5^2,5^3-dihydro-1^1H,5^1H-9-oxa-4-aza-5(2,1)-benzo[d]imidazola-2(2,4)-pyridina-1(4,5)-pyrazola-7(1,3)-cyclopentanacyclononaphane-5^6-yl)-2-(hydroxymethyl)piperazin-1-yl)piperidin-1-yl)-2,6-difluorophenyl)piperidine-2,6-dione] | 1.6 nM | 82.7% | 92.6% | 7.9 nM | 0.97 nM | 61.3% | 101.1% | 0.6 nM
9 | Cc1cc2cc(n1)-c1cnn(C)c1OC[C@H]1CCC(C1)CN1/C(=N/C2=O)Nc2ccc(N3CCN([C@H]4CCN(c5ccc(C6CCC(=O)NC6=O)nc5C)C[C@@H]4F)CC3)cc21 (stereo partly drawn) [Example 76, 3-(5-((3S,4S)-4-(4-((7^1R,7^3S,E)-1^1,2^6-dimethyl-3-oxo-5^2,5^3-dihydro-1^1H,5^1H-9-oxa-4-aza-5(2,1)-benzo[d]imidazola-2(2,4)-pyridina-1(4,5)-pyrazola-7(1,3)-cyclopentanacyclononaphane-5^6-yl)piperazin-1-yl)-3-fluoropiperidin-1-yl)-6-methylpyridin-2-yl)piperidine-2,6-dione] | 3.23 nM | 84.8% | 94.9% | 7.8 nM | 3.87 nM | 79.4% | 101% | 0.7 nM
